Broadly, the EC50 is the concentration at which the effect is half-maximal. A higher EC50 goes with a less potent agent.

EC50 and half life data for 1 molecule are collected here from paper PMC6192554, “In vitro toxicity and efficacy of verdinexor, an exportin 1 inhibitor, on opportunistic viruses affecting immunocompromised individuals” (PLoS ONE, 2018).

In one data set the test system is HPV-11. The data set can be described thus: HPV-11 transient origin-plasmid replication assay in HEK293 cells (qPCR). Format: cell-based, human papillomavirus. As to conditions: Human papillomavirus, HPV-11, primary screen. The procedure:
HPV-11 and -18 were tested in HEK293 cells and primary human keratinocytes (PHK), respectively. PHKs were isolated from neonatal foreskins following circumcision according to IRB-approved protocols at UAB. They were grown in keratinocyte serum-free medium (Life Technologies) with mitomycin C-treated J2 feeder cells (Swiss 3T3 J2 fibroblasts; Elaine Fuchs, Rockefeller University). HEK 293 cells were maintained under standard conditions.
Quantification of virus was determined via transient replication of an HPV-11 replication origin-containing plasmid in HEK293 cells co-transfected with an HPV-11 replicative DNA helicase E1 and origin binding E2 protein [20]. 293 cells were cultured with test compounds added 4hr post-transfection for 2 days. Low molecular weight DNA was isolated, digested with Dpn1 and exonuclease III to eliminate unreplicated DNA. The Dpn1-resistant DNA was then subjected to qPCR analyses amplifying a small portion of the replication origin [20]. In a negative control, the E1 expression vector was omitted or cultures were treated with the inhibitor cidofovir.
(In qPCR the cycle at which signal appears reflects the starting amount.)

The conditions of data set [1]: ferrets receiving 5mg/kg; cited from earlier work.

As to `O=C(C=Cn1cnc(-c2cc(C(F)(F)F)cc(C(F)(F)F)c2)n1)NNc1ccccn1` (stereo in doubt) [verdinexor, (E)-3-[3-[3,5-bis(trifluoromethyl)phenyl]-1,2,4-triazol-1-yl]-N'-pyridin-2-ylprop-2-enehydrazide], in the data set with HPV-11, the response was half-maximal at 1650 nM (EC50). Also, in data set [1], the half life was 2 h.
